The molecules below were run against T1, HDAC6 enzyme (Homo sapiens, UniProt Q9UBN7) (assay: HDAC6 enzyme inhibitory activity (HDAC-Glo I/II Assay kit)). Details: 10 μM; wells without enzyme = 100% inhibition.
T1 construct: transducing full length HDAC6 gene into Sf-9 insect cells; GST; purchased SignalChem; host or cells: Sf-9 insect cells
T1 sequence (Q9UBN7 1-1215): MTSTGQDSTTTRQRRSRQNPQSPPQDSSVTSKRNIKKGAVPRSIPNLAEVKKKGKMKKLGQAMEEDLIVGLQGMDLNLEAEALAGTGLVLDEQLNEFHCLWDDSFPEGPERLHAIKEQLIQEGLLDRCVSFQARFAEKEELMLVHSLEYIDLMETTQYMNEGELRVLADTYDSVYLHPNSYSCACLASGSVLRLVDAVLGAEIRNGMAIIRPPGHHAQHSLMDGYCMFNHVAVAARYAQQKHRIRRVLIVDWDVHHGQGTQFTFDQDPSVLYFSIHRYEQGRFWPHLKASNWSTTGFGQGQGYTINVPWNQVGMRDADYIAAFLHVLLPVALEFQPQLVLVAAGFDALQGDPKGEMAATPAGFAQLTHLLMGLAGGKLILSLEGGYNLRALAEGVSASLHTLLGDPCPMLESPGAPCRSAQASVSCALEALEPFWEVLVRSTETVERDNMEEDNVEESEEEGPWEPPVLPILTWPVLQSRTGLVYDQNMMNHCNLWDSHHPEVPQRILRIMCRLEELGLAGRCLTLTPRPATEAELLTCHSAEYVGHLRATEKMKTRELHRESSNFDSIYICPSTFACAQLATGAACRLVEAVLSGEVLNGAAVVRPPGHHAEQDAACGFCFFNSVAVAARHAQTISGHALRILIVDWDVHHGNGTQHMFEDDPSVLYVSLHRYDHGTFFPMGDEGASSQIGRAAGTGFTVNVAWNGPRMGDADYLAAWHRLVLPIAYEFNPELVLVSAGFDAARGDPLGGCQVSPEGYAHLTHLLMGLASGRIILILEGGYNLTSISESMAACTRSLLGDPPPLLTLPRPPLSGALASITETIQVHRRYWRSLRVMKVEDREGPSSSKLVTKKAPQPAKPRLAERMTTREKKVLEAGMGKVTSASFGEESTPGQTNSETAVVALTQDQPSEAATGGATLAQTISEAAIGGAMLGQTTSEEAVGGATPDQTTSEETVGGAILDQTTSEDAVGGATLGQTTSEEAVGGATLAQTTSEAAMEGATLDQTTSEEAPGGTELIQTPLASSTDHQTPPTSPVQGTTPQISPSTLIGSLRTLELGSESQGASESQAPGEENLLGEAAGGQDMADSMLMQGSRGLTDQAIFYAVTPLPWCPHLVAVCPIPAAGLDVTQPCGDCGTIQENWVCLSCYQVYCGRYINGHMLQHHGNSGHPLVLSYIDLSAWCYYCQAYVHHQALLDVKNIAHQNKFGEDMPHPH
Type: biochemical
Method in brief: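 Inhibition is calculated as relative activity, taking luminescence in enzyme-free wells as complete inhibition. The enzyme, full-length and GST-purified after Sf-9 expression, was exposed to compound for 60 min at room temperature before a 20 min HDAC-Glo reaction.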

HDAC6 inhibitory rate (%) (10 μM)	SMILES
100%	O=C(NCC(F)(F)F)C1CC(F)(F)CCN1N1Cc2ccc(-c3nnc(C(F)F)o3)cc2C1=O (stereo not drawn) [Example 579, 1-(6-(5-(difluoromethyl)-1,3,4-oxadiazol-2-yl)-1-oxo-1,3-dihydro-2H-isoindol-2-yl)-4,4-difluoro-N-(2,2,2-trifluoroethyl)piperidine-2-carboxamide (Optical Isomer)]
100%	O=C(NCC(F)(F)F)C1CC(F)(F)CCN1N1Cc2ccc(-c3nnc(C(F)F)o3)cc2C1=O (stereo not drawn) [Example 580, 1-(6-(5-(difluoromethyl)-1,3,4-oxadiazol-2-yl)-1-oxo-1,3-dihydro-2H-isoindol-2-yl)-4,4-difluoro-N-(2,2,2-trifluoroethyl)piperidine-2-carboxamide (Optical Isomer)]

Further lines, the molecule ahead of its results:

SMILES	HDAC6 inhibitory rate (%) (10 μM)
O=C1c2cc(-c3nnc(C(F)F)o3)ccc2CN1N1CCC(F)(F)CC1c1ccccc1 (stereo not drawn) [Example 554, 6-(5-(difluoromethyl)-1,3,4-oxadiazol-2-yl)-2-(4,4-difluoro-2-phenylpiperidin-1-yl)isoindolin-1-one (optical isomer)]	100%
O=C1c2cc(-c3nnc(C(F)F)o3)ccc2CN1N1CCC(F)(F)CC1c1ccccc1 (stereo not drawn) [Example 555, 6-(5-(difluoromethyl)-1,3,4-oxadiazol-2-yl)-2-(4,4-difluoro-2-phenylpiperidin-1-yl)isoindolin-1-one (optical isomer)]	100%
O=C1c2cc(-c3nnc(C(F)F)o3)ccc2CN1N1CCC(F)(F)CC1c1cccc(F)c1 (stereo not drawn) [Example 562, 2-(4,4-difluoro-2-(3-fluorophenyl)piperidin-1-yl)-6-(5-(difluoromethyl)-1,3,4-oxadiazol-2-yl)isoindolin-1-one (optical isomer)]	99%
O=C1c2cc(-c3nnc(C(F)F)o3)ccc2CN1N1CCC(F)(F)CC1c1cccc(F)c1 (stereo not drawn) [Example 565, 2-(4,4-difluoro-2-(3-fluorophenyl)piperidin-1-yl)-6-(5-(difluoromethyl)-1,3,4-oxadiazol-2-yl)isoindolin-1-one (optical isomer)]	100%
O=C1c2cc(-c3nnc(C(F)F)o3)ccc2CN1N1CCC(F)(F)CC1c1ccc(F)cc1 (stereo not drawn) [Example 572, 2-(4,4-difluoro-2-(4-fluorophenyl)piperidin-1-yl)-6-(5-(difluoromethyl)-1,3,4-oxadiazol-2-yl)isoindolin-1-one (optical isomer)]	100%
O=C1c2cc(-c3nnc(C(F)F)o3)ccc2CN1N1CCC(F)(F)CC1c1ccc(F)cc1 (stereo not drawn) [Example 573, 2-(4,4-difluoro-2-(4-fluorophenyl)piperidin-1-yl)-6-(5-(difluoromethyl)-1,3,4-oxadiazol-2-yl)isoindolin-1-one (optical isomer)]	99%

Same assay, conditions: 10 μM; wells without enzyme = 100% inhibition; read-out: HDAC6 inhibitory rate (%) (10 μM)

inhibition at 10 µM	SMILES
100%	O=C1c2cc(-c3nnc(C(F)F)o3)ccc2CN1[C@@H]1CCCC[C@H]1c1nnc2ccccn12 [Example 547, 6-(5-(difluoromethyl)-1,3,4-oxadiazol-2-yl)-2-((1R,2R)-2-([1,2,4]triazolo[4,3-a]pyridin-3-yl)cyclohexyl)isoindolin-1-one]
99%	Cn1cc(C2CCN(CC(F)(F)C(F)(F)F)CC2)c(N2Cc3ccc(-c4nnc(C(F)F)o4)cc3C2=O)n1 [Example 550, 6-(5-(difluoromethyl)-1,3,4-oxadiazol-2-yl)-2-(1-methyl-4-(1-(2,2,3,3,3-pentafluoropropyl)piperidin-4-yl)-1H-pyrazol-3-yl)isoindolin-1-one]
100%	O=C1c2cc(-c3nnc(C(F)F)o3)ccc2CN1N1CCCC1c1cccc(F)c1 (centres unmarked) [Example 553, 6-(5-(difluoromethyl)-1,3,4-oxadiazol-2-yl)-2-(2-(3-fluorophenyl)pyrrolidin-1-yl)isoindolin-1-one]
99%	Cn1cc(C2CCC(NCC(F)(F)C(F)(F)F)CC2)c(N2Cc3ccc(-c4nnc(C(F)F)o4)cc3C2=O)n1 (centres unmarked) [Example 557, 6-(5-(difluoromethyl)-1,3,4-oxadiazol-2-yl)-2-(1-methyl-4-(4-((2,2,3,3,3-pentafluoropropyl)amino)cyclohexyl)-1H-pyrazol-3-yl)isoindolin-1-one]
100%	O=C(NCC(F)(F)F)C1CC(F)(F)CCN1N1Cc2ccc(-c3nnc(C(F)F)o3)cc2C1=O (centres unmarked) [Example 564, 1-(6-(5-(difluoromethyl)-1,3,4-oxadiazol-2-yl)-1-oxo-1,3-dihydro-2H-isoindol-2-yl)-4,4-difluoro-N-(2,2,2-trifluoroethyl)piperidine-2-carboxamide]
95%	Cn1cc(C(=O)NCC(F)(F)F)c(N2Cc3ccc(-c4nnc(C(F)F)o4)cc3C2=O)n1 [Example 567, 3-(6-(5-(difluoromethyl)-1,3,4-oxadiazol-2-yl)-1-oxo-1,3-dihydro-2H-isoindol-2-yl)-1-methyl-N-(2,2,2-trifluoroethyl)-1H-pyrazole-4-carboxamide]
96%	Cn1cc(C(=O)NCC2CC2)c(N2Cc3ccc(-c4nnc(C(F)F)o4)cc3C2=O)n1 [Example 568, N-(cyclopropylmethyl)-3-(6-(5-(difluoromethyl)-1,3,4-oxadiazol-2-yl)-1-oxo-1,3-dihydro-2H-isoindol-2-yl)-1-methyl-1H-pyrazole-4-carboxamide]
99%	Cn1cc(C(=O)N2CCC(F)(F)CC2)c(N2Cc3ccc(-c4nnc(C(F)F)o4)cc3C2=O)n1 [Example 569, 6-(5-(difluoromethyl)-1,3,4-oxadiazol-2-yl)-2-(4-((4,4-difluoropiperidin-1-yl)carbonyl)-1-methyl-1H-pyrazol-3-yl)isoindolin-1-one]
73%	O=C1c2cc(-c3nnc(C(F)F)o3)ccc2CN1c1cccn2cc(C(F)(F)F)nc12 [Example 571, 6-(5-(difluoromethyl)-1,3,4-oxadiazol-2-yl)-2-(2-(trifluoromethyl)imidazo[1,2-a]pyridin-8-yl)isoindolin-1-one]
99%	O=C1c2cc(-c3nnc(C(F)F)o3)ccc2CN1[C@@H]1CCCC(F)(F)[C@H]1NC(=O)C(F)(F)C(F)F [Example 581, N-((1S,6R)-6-(6-(5-(difluoromethyl)-1,3,4-oxadiazol-2-yl)-1-oxo-1,3-dihydro-2H-isoindol-2-yl)-2,2-difluorocyclohexyl)-2,2,3,3-tetrafluoropropanamide]

Further lines, the molecule ahead of its results:

SMILES	inhibition at 10 µM
O=C1c2cc(-c3nnc(C(F)F)o3)cnc2CN1[C@@H]1CCCC[C@H]1n1nnc2ccccc21 [Example 537, 6-((1R,2R)-2-(1H-benzotriazol-1-yl)cyclohexyl)-3-(5-(difluoromethyl)-1,3,4-oxadiazol-2-yl)-6,7-dihydro-5H-pyrrolo[3,4-b]pyridin-5-one]	100%
O=C1c2cc(-c3nnc(C(F)F)o3)ccc2CN1N1CCC(F)(F)CC1c1cccc(F)c1 (centres unmarked) [Example 560, 2-(4,4-difluoro-2-(3-fluorophenyl)piperidin-1-yl)-6-(5-(difluoromethyl)-1,3,4-oxadiazol-2-yl)isoindolin-1-one]	100%
O=C1c2cc(-c3nnc(C(F)F)o3)ccc2CN1[C@@H]1CCOC[C@H]1n1nnc2cc(Cl)ccc21 [Example 563, 2-((3S,4R)-3-(5-chloro-1H-benzotriazol-1-yl)tetrahydro-2H-pyran-4-yl)-6-(5-(difluoromethyl)-1,3,4-oxadiazol-2-yl)isoindolin-1-one]	100%
O=C1c2cc(-c3nnc(C(F)F)o3)ccc2CN1N1CCC(F)(F)CC1c1ccc(F)cc1 (centres unmarked) [Example 566, 2-(4,4-difluoro-2-(4-fluorophenyl)piperidin-1-yl)-6-(5-(difluoromethyl)-1,3,4-oxadiazol-2-yl)isoindolin-1-one]	100%
O=C1c2cc(-c3nnc(C(F)F)o3)ccc2CN1N1CCCC1c1ccccn1 (centres unmarked) [Example 570, 6-(5-(difluoromethyl)-1,3,4-oxadiazol-2-yl)-2-(2-(pyridin-2-yl)pyrrolidin-1-yl)isoindolin-1-one]	100%

— US10435399B2, “HDAC6 inhibitory heterocyclic compound” (TAKEDA PHARMACEUTICAL COMPANY LIMITED, priority 2017, dated 2019)
